Assay results as given in ChEMBL document CHEMBL1147595, “Design and synthesis of photoactivatable aryl diketo acid-containing HIV-1 integrase inhibitors as potential affinity probes” (Bioorg Med Chem Lett, 2004).
Several values for one entry are separate records, joined by “and”; a condition that tells them apart may be missing. Identical values can stand only once.

How the values were obtained:
[1] = target: T1, Human immunodeficiency virus type 1 integrase (Human immunodeficiency virus 1, UniProt Q7ZJM1); assay: Inhibition of Integrase (strand transfer) as measured in an in vitro assay
[2] = target: T1, Human immunodeficiency virus type 1 integrase; assay: Inhibition of Integrase (3'-processing) as measured in an in vitro assay
[3] = target: T1, Human immunodeficiency virus type 1 integrase; assay: Inhibition of Integrase catalyzed strand transfer (ST) as measured in an in vitro assay
[4] = target: T1, Human immunodeficiency virus type 1 integrase; assay: Inhibition of integrase catalyzed strand transfer (ST) as measured in an in vitro assay

T1 sequence (Q7ZJM1 whole entry): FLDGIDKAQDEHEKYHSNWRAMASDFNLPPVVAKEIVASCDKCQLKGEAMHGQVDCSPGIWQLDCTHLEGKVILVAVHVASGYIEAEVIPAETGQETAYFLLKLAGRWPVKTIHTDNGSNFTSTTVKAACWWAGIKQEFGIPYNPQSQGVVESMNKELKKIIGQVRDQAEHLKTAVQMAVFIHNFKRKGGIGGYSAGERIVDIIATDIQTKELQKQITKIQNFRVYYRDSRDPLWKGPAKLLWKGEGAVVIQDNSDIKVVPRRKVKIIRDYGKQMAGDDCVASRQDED

| IC50 [1] [µM] | IC50 [2] [µM] | IC50 [3] | IC50 [4] [µM] | Structure (SMILES) |
| --- | --- | --- | --- | --- |
| < 0.1 |  |  |  | O=C(O)C(=O)CC(=O)c1cccc(Cc2ccccc2)c1 |
|  | > 100 | 2.1 µM | 2.7 | O=C(O)C(=O)CC(=O)c1cccc(C(=O)c2ccccc2)c1 |
|  | > 100 | 5.3 µM and 5.2 µM |  | [N-]=[N+]=Nc1cccc(C(=O)CC(=O)C(=O)O)c1 |
|  | > 100 | 19 µM and 29 µM |  | O=C(O)C(=O)CC(=O)c1cccc(OCc2ccc(C(=O)c3ccccc3)cc2)c1 |
